Experimental data taken from patent US20240041886A1, “METHODS FOR TREATING SPINOCEREBELLAR ATAXIA TYPE 3” (PTC Therapeutics, Inc., priority 2021, published 2024).
Where two headings read alike, the source gives them in different places. Blank lines part the entries; values can stand above or below the molecule they belong to.

Assays:
[1] = test system: Endogenous Total ATXN3 (tATXN3) Protein; experiment: Endogenous Total ATXN3 (tATXN3) Protein Assay (MSD); assay type: cell-based; conditions: for IC50: average IC50, total ATXN3 protein in cell lysate after 48 h, 7-point concentration curve
Method: Meso Scale Discovery (MSD) 96-well or 384-well plates were coated overnight at 4° C. with Ataxin 3 mouse monoclonal antibody (Invitrogen, MA3-082) at a concentration of 0.5 μg/mL in PBS (30 μL per well). Plates were then washed three times with 300 μL wash buffer (0.05% TWEEN®-20, polyethylene glycol sorbitan monolaurate, in PBS) and blocked (Meso Scale Diagnostics, R93BA-1; 5% BSA in PBS) for 2 h at RT with rotational shaking and then washed three times with wash buffer.
(§1) Test compounds were serially diluted 3.16-fold in 100% DMSO to generate a 7-point concentration curve. Aliquots of 0.5 μL of diluted compounds were transferred to a 96-well flat bottom plate by a liquid handler. An aliquot of 0.5 μL DMSO was also transferred to separate wells and used as controls. Duplicate samples were set up for each compound concentration and for the DMSO control.
Cells were thawed and incubated in cell culture media (DMEM, 10% FBS, and 1% antibiotic cocktail) for 72 h. Cells were trypsinized, counted, and re-suspended to a concentration of 100,000 cells/mL in cell culture media. A 100 μL aliquot of the cell suspensions were plated at 10,000 cells per well in the compound containing 96 well microtiter plate and incubated for in a cell culture incubator (37° C., 5% CO2, 100% relative humidity). After 48 h, the medium was removed and 50-100 μL of lysis buffer (Meso Scale Diagnostics, R60TX-2) containing 1× halt protease inhibitor cocktail of (Thermo Scientific, Halt™ Protease Inhibitor Cocktail, 78430) per well was added to cells to provide a “cell lysate”. The plate was placed on a shaker at 4° C. for 30 minutes, then stored at −80° C.
Cell lysate samples (25 μL) were transferred to the antibody-coated MSD plate and incubated overnight at 4° C. After removal of the lysates, the plate was washed three times with wash buffer, and 25 μL of Ataxin 3 recombinant rabbit monoclonal antibody (Invitrogen, #702788) secondary antibody (diluted to 0.25 μg/mL in 0.05% TWEEN®-20 in blocking buffer) was added to each well and incubated with shaking for 1-2 h at room temperature. Following incubation with the secondary antibody, the wells were rinsed with wash buffer and then […] Anti Rabbit Antibody Goat SULFO-TAG Labeled (Meso Scale Diagnostics, R32AB-1) detecting antibody (diluted to 0.25 μg/mL in 0.05% TWEEN®-20 in blocking buffer) was added to each well and incubated with shaking for 1 h at room temperature. After rinsing three times with wash buffer, 150 μL of Read Buffer T with surfactant (tris-based buffer containing tripropylamine, Meso Scale Diagnostics, R92TC-1) were added to each empty well, and the plate was imaged on a SI 6000 imager (MSD) according to manufacturers' instructions provided for 96- or 384-well plates.

ATXN3 Pre-mRNA = experiment: RT-qPCR Assay to Quantify Exon 4 Skipping in ATXN3 Pre-mRNA in Cells; assay type: cell-based; conditions: for IC50: percent exon 4 skipping by RT-qPCR after 24 h, 7-point concentration curve
Method: as §1
Cells were thawed and incubated in cell culture media (DMEM, 10% FBS, and 1% antibiotic cocktail) for 72 h. Cells were trypsinized, counted, and re-suspended to a concentration of 100,000 cells/mL in cell culture media. A 100 μL aliquot of the cell suspensions were plated at 10,000 cells per well in the compound containing 96 well microtiter plate and incubated for in a cell culture incubator (37° C., 5% CO2, 100% relative humidity).
After 24 h, media was aspirated from the cells and 50 μL of the RCL2 lysis buffer (10 mM Tris-HCL pH 7.4, 150 mM NaCl, 0.33% IGEPAL® CA-630) was added to each well and incubated at RT for 1 min. Chilled nuclease free water (50 μL per well) was added and the plates were immediately transferred on ice. After 1 min on ice, plates were frozen at −80° C. overnight.
Preparation of RT-qPCR Reaction Mixture:
An aliquot of 2 μL/well of the cell lysates was transferred using the liquid handler to the Armadillo 384-Well PCR plate containing 8 μL/well of the RT-qPCR reaction mixture that was prepared as detailed above. The plates were then sealed with MicroAmp™ Optical Adhesive Film followed by spinning down for 1 min and placed in the CFX384 thermocycler (BioRad).
The RT-qPCR was carried out at the following temperatures for the indicated time: • Step 1:48° C. (30 min) • Step 2: 95° C. (10 min) • Step 3: 95° C. (15 sec) • Step 4: 60° C. (1 min); then, repeated Steps 3 and 4 for a total of 40 cycles.
The percent exon 4 skipping was calculated for each dose of compound treatment using Equations 1 and 2.
Data were fit to a dose response curve and the IC50 was interpolated using XLfit® statistical and curve fitting package.
An IC50 value between >2.0 μM and ≤3.0 μM is indicated by one star (*). […] IC50 value between >0.5 μM and ≤1.0 μM is indicated by four stars (****). An IC50 value≤0.5 μM is indicated by five stars (*****).

SMILES: C[C@H](N)Cc1c(Cl)c2c(NCc3ccco3)nc(Cl)nc2n1C [Cpd 23, 6-[(2S)-2-aminopropyl]-2,5-dichloro-N-[(furan-2-yl)methyl]-7-methyl-7H-pyrrolo[2,3-d]pyrimidin-4-amine]
IC50 ([1]; read-out: IC50): 500 to 1000 nM
IC50 (ATXN3 Pre-mRNA; read-out: IC50): 500 to 1000 nM

IC50 ([1]; read-out: IC50): 1000 to 1500 nM
IC50 (ATXN3 Pre-mRNA; read-out: IC50): 1500 to 2000 nM
SMILES: CNCCc1[nH]c2nc(Cl)nc(NCc3ccco3)c2c1Cl [Cpd 17, 2,5-dichloro-N-[(furan-2-yl)methyl]-6-[2-(methylamino)ethyl]-7H-pyrrolo[2,3-d]pyrimidin-4-amine]

SMILES: C[C@H](N)Cc1c(F)c2c(NCc3ccco3)nc(Cl)nc2n1C [Cpd 24, 6-[(2S)-2-aminopropyl]-2-chloro-5-fluoro-N-[(furan-2-yl)methyl]-7-methyl-7H-pyrrolo[2,3-d]pyrimidin-4-amine]
IC50 ([1]; read-out: IC50): 500 to 1000 nM
IC50 (ATXN3 Pre-mRNA; read-out: IC50): 1000 to 1500 nM

SMILES: Cc1c(C[C@H](C)N)n(C)c2nc(Cl)nc(NCc3ccco3)c12 [Cpd 35, 6-[(2S)-2-aminopropyl]-2-chloro-N-[(furan-2-yl)methyl]-5,7-dimethyl-7H-pyrrolo[2,3-d]pyrimidin-4-amine]
IC50 ([1]; read-out: IC50): ≤ 500 nM
IC50 (ATXN3 Pre-mRNA; read-out: IC50): ≤ 500 nM

SMILES: C[C@H](N)Cc1c(F)c2c(NCc3nccs3)nc(Cl)nc2n1C [Cpd 38, 6-[(2S)-2-aminopropyl]-2-chloro-5-fluoro-7-methyl-N-[(1,3-thiazol-2-yl)methyl]-7H-pyrrolo[2,3-d]pyrimidin-4-amine]
IC50 ([1]; read-out: IC50): 1000 to 1500 nM
IC50 (ATXN3 Pre-mRNA; read-out: IC50): 1000 to 1500 nM

SMILES: C[C@H](N)Cc1c(F)c2c(NCc3ccccn3)nc(Cl)nc2n1C [Cpd 55, 6-[(2S)-2-aminopropyl]-2-chloro-5-fluoro-7-methyl-N-[(pyridin-2-yl)methyl]-7H-pyrrolo[2,3-d]pyrimidin-4-amine]
IC50 [1]: inactive
IC50 (ATXN3 Pre-mRNA): inactive

ATXN3 Protein IC50 ([1]; tested according to the assay of Example 1): inactive
ATXN3 mRNA IC50 (ATXN3 Pre-mRNA; tested according to the assay of Example 2): inactive
SMILES: Clc1nc(NCc2ccncc2)c2cc[nH]c2n1 [Comparison Compound 1, 2-chloro-N-(pyridin-4-ylmethyl)-7H-pyrrolo[2,3-d]pyrimidin-4-amine, reference compound]

SMILES: C[C@H](N)Cc1c(F)c2c(NCc3cccnc3)nc(Cl)nc2n1C [Cpd 57, 6-[(2S)-2-aminopropyl]-2-chloro-5-fluoro-7-methyl-N-[(pyridin-3-yl)methyl]-7H-pyrrolo[2,3-d]pyrimidin-4-amine]
IC50 [1]: inactive
IC50 (ATXN3 Pre-mRNA): inactive

SMILES: C[C@H](N)Cc1[nH]c2nc(Cl)nc(NCc3ccco3)c2c1F [Cpd 10, 6-[(2S)-2-aminopropyl]-2-chloro-5-fluoro-N-[(furan-2-yl)methyl]-7H-pyrrolo[2,3-d]pyrimidin-4-amine]
IC50 ([1]; read-out: IC50): ≤ 500 nM
IC50 (ATXN3 Pre-mRNA; read-out: IC50): ≤ 500 nM

SMILES: C[C@H](N)Cc1c(F)c2c(NCc3cccs3)nc(Cl)nc2n1C [Cpd 49, 6-[(2S)-2-aminopropyl]-2-chloro-5-fluoro-7-methyl-N-[(thiophen-2-yl)methyl]-7H-pyrrolo[2,3-d]pyrimidin-4-amine]
IC50 ([1]; read-out: IC50): 1000 to 1500 nM
IC50 (ATXN3 Pre-mRNA; read-out: IC50): 500 to 1000 nM

SMILES: C[C@H](N)Cc1c(F)c2c(NCc3ccncc3F)nc(Cl)nc2n1C [Cpd 41, 6-[(2S)-2-aminopropyl]-2-chloro-5-fluoro-N-[(3-fluoropyridin-4-yl)methyl]-7-methyl-7H-pyrrolo[2,3-d]pyrimidin-4-amine]
IC50 ([1]; read-out: IC50): 1000 to 1500 nM
IC50 (ATXN3 Pre-mRNA; read-out: IC50): 2000 to 3000 nM

SMILES: C[C@H](N)Cc1c(F)c2c(NCc3ccncc3)nc(Cl)nc2n1C [Cpd 43, 6-[(2S)-2-aminopropyl]-2-chloro-5-fluoro-7-methyl-N-[(pyridin-4-yl)methyl]-7H-pyrrolo[2,3-d]pyrimidin-4-amine]
IC50 ([1]; read-out: IC50): 1500 to 2000 nM
IC50 (ATXN3 Pre-mRNA; read-out: IC50): 2000 to 3000 nM

SMILES: C[C@H](N)Cc1c(F)c2c(NCc3cncs3)nc(Cl)nc2n1C [Cpd 48, 6-[(2S)-2-aminopropyl]-2-chloro-5-fluoro-7-methyl-N-[(1,3-thiazol-5-yl)methyl]-7H-pyrrolo[2,3-d]pyrimidin-4-amine]
IC50 [1]: inactive
IC50 (ATXN3 Pre-mRNA): inactive
